Experimental data as given in US7297693B2, “Nitrogen-containing heterocyclic compounds and their use as Raf inhibitors” (SmithKline Beecham P.L.C., priority 2001, dated 2007).

How the values were obtained:
[1] = molecular target: B-Raf (Homo sapiens, UniProt P15056); assay: Fluorescence anisotropy kinase binding assay (Assay 1)
Source text: Fluorescence Anisotropy Kinase Binding Assay
The concentration of kinase enzyme should preferably be ≧1×Kf. The concentration of fluorescent ligand required will depend on the instrumentation used, and the fluorescent and physicochemical properties. The concentration used must be lower than the concentration of kinase enzyme, and preferably less than half the kinase enzyme concentration. A typical protocol is:
All compounds are serially diluted in DMSO, then by a one step dilution into buffer of comparison, 50 mM HEPES, […] pH7.5, 1 mM CHAPS, 10 mM MgCL2, for the assay.
B-Raf Enzyme concentration: 1 nM
Fluorescent ligand concentration: 0.5 nM
Test compound concentration: 0.5 nM-100 uM
Components incubated in 10 ul final volume in LJL HE 384 type B black microtitre plate until equilibrium reached (Over 3 h, up to 30 h)
Fluorescence anisotropy read in an LJL Acquest fluorescence reader.
• Ki=dissociation constant for inhibitor binding • Kf=dissociation constant for fluorescent ligand binding
The fluorescent ligand is the following compound:
which is derived from 5-[2-(4-aminomethylphenyl)-5-pyridin-4-yl-1H-imidazol-4-yl]-2-chlorophenol and rhodamine green.

[2] = tested on: Normal human foreskin fibroblasts (HFF); assay: Methylene blue growth inhibition assay (Assay 2), HFF; format: cell-based; conditions: Fibroblast, 72 h, B-Raf wt, Ras wt, Assay 2, 3 days
Protocol: (§1) Methylene Blue Growth Inhibition Assay (Assay 2)
(§2) Normal human foreskin fibroblasts (HFF), human melanoma (A375P, SKMEL2, SKMEL3) colon carcinoma (Colo 205) were cultured in the following growth media: A375P, Colo 205, Roswell Park Memorial Institute (RPMI) 1640 (Life Technologies 22400-089) containing 10% fetal bovine serum (FBS); HFF, Dulbecco's modified Eagle Medium (DMEM) (Life Technologies 12320-032) containing 10% FBS; SKMEL2 and SKMEL3, Minimum Essential Medium (MEM, Life Technologies 11095-080) containing 1× non-essential amino acids (Life Technologies 11140-050) and 10% FBS. Cells were harvested using 0.25% trypsin/1 mM, EDTA, counted using a haemocytometer, and plated in […] of the appropriate media, at the following densities, in a 96-well tissue culture plate (Falcon 3075): […] and A375P, 5,000 cells/well; all other cell lines, 10,000 cells/well. The next day, compounds were diluted in RPMI containing 100 micrograms/ml gentamicin, at twice the final required concentration, from 10 mM stock solutions in dimethyl sulphoxide (DMSO). One hundred microliters per well of these dilutions were added to the 100 microliters of media currently on the cell plates. RPMI containing 0.6% DMSO was added to control wells. […] Optical density at 620 nm was measured on a microplate reader. Percent inhibition of cell growth was calculated relative to vehicle treated control wells. […]

[3] = tested on: human colon carcinoma (Colo 201) cells; assay: XTT 72 hr growth inhibition (Assay 3), Colo201; format: cell-based; conditions: Colorectal cancer, B-Raf ND, Ras ND, Assay 3, 72 hr
Protocol: XTT 72 hr Growth Inhibition Protocol for Mammalian Cultured Cells (Assay 3)
Human diploid foreskin fibroblasts (HFF) or human colon carcinoma (Colo 201) cells were grown in Dulbecco's modified Eagle's medium (DMEM) (Invitrogen/Life Technologies) containing 10% fetal bovine serum (FBS) and the antibiotics penicillin (100 Units/ml) and streotomycin (100 micrograms/ml) (Invitrogen/Life Technologies). Growth was at 37° C. in humidified 5% CO2 incubators in 75 cm^2 plastic flasks. Cells were harvested using 0.25% trypsin/1 mM ethylenediaminetetraacetic acid (EDTA), resuspended in growth medium, and counted using a hemocytometer. Flat-bottomed 96-well plates were seeded with 2×10^3 cells/well in a volume of 200 ul from trypsinized exponentially growing cultures. To “blank” wells, growth medium was added with no additions. Cells were incubated overnight to permit attachment.
Next day, medium from wells that contained cells was replaced with 180 microliters of fresh medium. Appropriate dilutions of test compounds were added to the wells from stock soloutions of compound dissolved in dimethyl sulfoxide (DMSO); final DMSO concentration in all wells was 0.2%. […] Absorbance at 450 nm was then determined using a 96-well UV plate reader (Molecular Devices). Under these conditions, absorbance of untreated control cells at 450 nm was at least 1.0 optical density unit/ml. […]

[4] = tested on: colon carcinoma (Colo 205); assay: Methylene blue growth inhibition assay (Assay 2), Colo205; format: cell-based; conditions: Homo sapiens, COLO 205, 72 h; Colorectal cancer; B-Raf V599E, Ras wt; Assay 2, 3 days
Protocol: as §1, §2

[5] = tested on: human melanoma A375P; assay: Methylene blue growth inhibition assay (Assay 2), A375P; format: cell-based; conditions: 72 h, B-Raf V599E, Ras wt, Assay 2, 3 days
Protocol: as §1, §2

[6] = tested on: human melanoma SKMEL3; assay: Methylene blue growth inhibition assay (Assay 2), SKMEL3; format: cell-based; conditions: SK-MEL3, 72 h, B-Raf V599E, Ras wt, Assay 2, 3 days
Protocol: as §1, §2

[7] = tested on: human melanoma SKMEL2; assay: Methylene blue growth inhibition assay (Assay 2), SKMEL2; format: cell-based; conditions: SK-MEL-2, 72 h, B-Raf wt, [Q61R]N-Ras, Assay 2, 3 days
Protocol: as §1, §2

Sequence of B-Raf (P15056 whole entry): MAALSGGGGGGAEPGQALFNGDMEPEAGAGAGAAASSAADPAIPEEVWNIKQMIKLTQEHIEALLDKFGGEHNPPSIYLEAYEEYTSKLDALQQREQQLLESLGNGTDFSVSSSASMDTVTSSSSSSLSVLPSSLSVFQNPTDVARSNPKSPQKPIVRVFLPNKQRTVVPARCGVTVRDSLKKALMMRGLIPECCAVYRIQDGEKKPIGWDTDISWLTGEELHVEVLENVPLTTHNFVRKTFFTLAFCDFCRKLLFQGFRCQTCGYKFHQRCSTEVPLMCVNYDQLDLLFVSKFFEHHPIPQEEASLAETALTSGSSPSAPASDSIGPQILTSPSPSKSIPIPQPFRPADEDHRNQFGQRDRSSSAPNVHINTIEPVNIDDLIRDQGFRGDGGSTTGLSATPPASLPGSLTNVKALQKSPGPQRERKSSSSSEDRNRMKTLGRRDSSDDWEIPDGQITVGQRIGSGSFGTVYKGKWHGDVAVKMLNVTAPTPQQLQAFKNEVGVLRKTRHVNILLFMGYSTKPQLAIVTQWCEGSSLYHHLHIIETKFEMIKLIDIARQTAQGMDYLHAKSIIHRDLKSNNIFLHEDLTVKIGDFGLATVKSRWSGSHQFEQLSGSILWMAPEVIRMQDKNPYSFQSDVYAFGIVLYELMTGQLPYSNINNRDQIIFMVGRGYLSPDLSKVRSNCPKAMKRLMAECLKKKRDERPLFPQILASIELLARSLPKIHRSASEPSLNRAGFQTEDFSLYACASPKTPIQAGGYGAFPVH

Kd [1]: 0.4 nM | IC50 [3]: 0.8 µM | IC50 [4]: 0.32 µM | IC50 [5]: 0.31 µM | IC50 [6]: 0.46 µM | IC50 [7]: 1.9 µM
SMILES: O=C(c1cc(-c2ccc3c(c2)CCC3=NO)c(-c2ccncc2)o1)N1CCC(N2CCCC2)CC1 [Example 20, 5-{2-Pyridin-4-yl-5-[1-(4-pyrrolidin-1-yl-piperidin-1-yl)-methanoyl}-furan-3-yl}-indan-1-one oxime]
IC50 [2]: > 30 µM
